For twelve compounds, GI50 and TGI results are on record in PubChem BioAssay (NCI).

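48-hour exposure; five concentrations; linearly interpolated endpoints. GI50 = concentration required for 50% inhibition of growth. TGI: concentration producing complete growth inhibition.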

Among the test systems are SF-295 CNS; RPMI-8226 leukemia; SK-MEL-28 melanoma; SN12C renal; KM12 colon; TK-10 renal; SNB-75 CNS; SK-OV-3 ovarian; HCT-116 colon; HL-60(TB) leukemia.
Experiment in all cases: NCI-60 cell line screen, 48 h

Turning to `CCc1cccc(CC)c1NC(=O)c1ccn2c1CCc1cnc(Nc3ccc(N4CCN(C)CC4)cc3OC)nc1-2`, the GI50 is 1.62 µM in the assay with SF-295 CNS; 1.92 µM with RPMI-8226 leukemia; 1.76 µM in the assay on SK-MEL-28 melanoma; 2.13 µM in the assay with SN12C renal; 2.63 µM in the assay on KM12 colon; 2.93 µM in the assay with TK-10 renal. The GI50 in the assay on SNB-75 CNS was 1.87 µM; with SK-OV-3 ovarian, 11.3 µM. The TGI stood at 3.73 µM in the assay with SF-295 CNS; 6.58 µM in the assay with RPMI-8226 leukemia; 3.55 µM in the assay with SK-MEL-28 melanoma; 13.9 µM in the assay on SN12C renal; 14.8 µM in the assay with KM12 colon; 16.2 µM in the assay on TK-10 renal. Also, the TGI with SNB-75 CNS was 7.47 µM; with SK-OV-3 ovarian, 23.4 µM.

For `Cc1cccc2c1ccc1c3occ(C)c3c(=O)oc21`, the GI50 in the assay with SF-295 CNS, in the assay on RPMI-8226 leukemia, with SK-MEL-28 melanoma, with SN12C renal, with KM12 colon and in the assay on TK-10 renal was > 100 µM in each case. Besides, the GI50 with HCT-116 colon was > 100 µM; with SNB-75 CNS it was 45.7 µM; in the assay with SK-OV-3 ovarian it was > 100 µM. For the same compound, the TGI in the assay with SF-295 CNS, with RPMI-8226 leukemia, in the assay with SK-MEL-28 melanoma, in the assay with SN12C renal, in the assay with KM12 colon and in the assay on TK-10 renal was > 100 µM each time. For the same compound, the TGI in the assay with HCT-116 colon, in the assay with SNB-75 CNS and in the assay with SK-OV-3 ovarian was > 100 µM each time.

Turning to `COc1cc2c3c(c1OCc1ccccc1)NCCC3NCC2` (stereo unspecified), the TGI in the assay with SF-295 CNS, with RPMI-8226 leukemia, with SN12C renal, in the assay on KM12 colon, in the assay on TK-10 renal and in the assay on HCT-116 colon was > 100 µM throughout. Further, the TGI in the assay on SNB-75 CNS and in the assay with HL-60(TB) leukemia was > 100 µM each time.

Take `Cc1cn2c(/C=N/N=C(N)N)c(-c3cc(Cl)sc3Cl)nc2s1`: the GI50 is 0.792 µM in the assay on RPMI-8226 leukemia, 0.736 µM in the assay with KM12 colon, 1.15 µM in the assay with TK-10 renal and 1.15 µM in the assay with SK-OV-3 ovarian. The TGI with RPMI-8226 leukemia worked out at 1.73 µM; in the assay on KM12 colon, 1.59 µM; in the assay with TK-10 renal, 2.95 µM; in the assay with SK-OV-3 ovarian, 2.78 µM.

For `COc1cccc(N2C(=O)[C@H]3[C@H]4CC(C(C)(C)C)CC[C@H]4c4c([nH]c5ccccc45)[C@H]3C2=O)c1` (stereo partly specified), the TGI in the assay with SF-295 CNS was 29.2 µM; with RPMI-8226 leukemia it was 35 µM; in the assay on SK-MEL-28 melanoma, 35.6 µM; in the assay with SN12C renal, 26.5 µM; in the assay with KM12 colon, > 100 µM; in the assay with TK-10 renal, 28.8 µM. Further, the TGI is 30.1 µM in the assay with SNB-75 CNS, 35.3 µM in the assay with SK-OV-3 ovarian and > 100 µM in the assay with HL-60(TB) leukemia.

Take `Nc1nc(Cl)nc2c1ncn2C1CCC(COP(=O)(O)OP(=O)(O)OP(=O)(O)O)O1` (stereo unspecified): the TGI is 58.4 µM with SF-295 CNS; 54.1 µM in the assay with SK-MEL-28 melanoma; > 100 µM in the assay on SN12C renal; > 100 µM with KM12 colon; > 100 µM with TK-10 renal; > 100 µM in the assay with HCT-116 colon. Besides, the TGI in the assay on SNB-75 CNS was 94.2 µM; in the assay on SK-OV-3 ovarian it was > 100 µM; in the assay on HL-60(TB) leukemia, 63.7 µM.

In the case of `Cc1ccc(C)c(N2C(=O)C(=O)c3c(C)ccc(C)c32)c1`, the TGI in the assay on SF-295 CNS is 54.8 µM; in the assay on SK-MEL-28 melanoma, > 100 µM; in the assay with SN12C renal, > 100 µM; in the assay on KM12 colon, 66.1 µM; in the assay on TK-10 renal, 85 µM; in the assay on HCT-116 colon, 32 µM. The TGI in the assay on SNB-75 CNS, in the assay with SK-OV-3 ovarian and with HL-60(TB) leukemia was > 100 µM each time.

Turning to `O=C(OC(CNc1c(C(=O)c2ccccc2)c(=O)n(Cc2ccccc2)c(=O)n1Cc1ccccc1)CN1CCCCC1)c1ccccc1` (stereo unspecified), the GI50 in the assay with SF-295 CNS was 22.1 µM; with RPMI-8226 leukemia it was 13.8 µM; with SN12C renal, 19.3 µM; in the assay with KM12 colon, 19.9 µM; in the assay on TK-10 renal it was 23.6 µM; in the assay with HCT-116 colon it was 14.9 µM. The results for the GI50 in the assay on SK-OV-3 ovarian and with HL-60(TB) leukemia were 37.6 µM and 14.8 µM, respectively. In addition, the TGI in the assay with SF-295 CNS was determined as 42.5 µM; in the assay on RPMI-8226 leukemia, 31.8 µM; in the assay with SN12C renal, 36.9 µM; in the assay on KM12 colon, 40.2 µM; in the assay on TK-10 renal, 71.6 µM; in the assay on HCT-116 colon it was 28.1 µM. The TGI in the assay with SK-OV-3 ovarian was > 100 µM; in the assay with HL-60(TB) leukemia, 33.8 µM.

For the compound `COc1cc(CCNc2nc3cc(N)cc(N)c3nc2-c2ccccc2)cc(OC)c1`, the GI50 in the assay with SF-295 CNS was 1.77 µM; in the assay with SK-MEL-28 melanoma, 1.63 µM; in the assay on SN12C renal, 1.67 µM; with KM12 colon it was 1.69 µM; in the assay on TK-10 renal it was 3.49 µM; in the assay on SNB-75 CNS, 1.37 µM. The GI50 in the assay with SK-OV-3 ovarian was 3.56 µM; in the assay with HL-60(TB) leukemia, 1.25 µM. Moreover, the TGI in the assay on SF-295 CNS came out at 3.47 µM; with SK-MEL-28 melanoma, 3.31 µM; in the assay on SN12C renal, 3.12 µM; with KM12 colon, 3.54 µM; in the assay with TK-10 renal it was 12.1 µM; in the assay on SNB-75 CNS, 2.85 µM. Further, the TGI with SK-OV-3 ovarian worked out at 13 µM; in the assay with HL-60(TB) leukemia it was 3.33 µM.

Take `O=C(NCc1cccs1)OC1CC2CCC1C2` (stereo unspecified): the TGI with SF-295 CNS, in the assay with RPMI-8226 leukemia, in the assay on SK-MEL-28 melanoma, with SN12C renal, with KM12 colon and in the assay on TK-10 renal was > 100 µM each time. Further, the TGI with HCT-116 colon, in the assay on SK-OV-3 ovarian and in the assay with HL-60(TB) leukemia was > 100 µM throughout.

On to `CN/N=C(/CC(=O)c1sc(-n2nc(-c3ccccc3)cc2-c2ccccc2)nc1C)C(=O)Nc1ccc(Cl)c(Cl)c1`, for which the TGI in the assay with SF-295 CNS, in the assay on RPMI-8226 leukemia, in the assay on SK-MEL-28 melanoma, with SN12C renal, with KM12 colon and in the assay with HCT-116 colon was > 100 µM each time. The TGI in the assay with SK-OV-3 ovarian is > 100 µM.

Consider `CC(=O)Nc1ccc(S(=O)(=O)c2ccc(NC(C)=O)cc2)cc1`, for which the GI50 with RPMI-8226 leukemia, with SK-MEL-28 melanoma, with SN12C renal, with KM12 colon, in the assay with TK-10 renal and in the assay with HCT-116 colon was > 100 µM in each case. Besides, the GI50 in the assay with SK-OV-3 ovarian and in the assay on HL-60(TB) leukemia was > 100 µM in each case. Also, the TGI in the assay on RPMI-8226 leukemia, in the assay with SK-MEL-28 melanoma, in the assay on SN12C renal, in the assay on KM12 colon, in the assay with TK-10 renal and in the assay with HCT-116 colon was > 100 µM in each case. Further, the TGI in the assay with SK-OV-3 ovarian and in the assay on HL-60(TB) leukemia was > 100 µM each time.
